Laboratory results reported in patent publication US20020187534A1, “Treating cancer by increasing intracellular malonyl CoA levels” (priority 1999, published 2002).

Key:
M-CPT-1 = conditions: cited from earlier work
MCF-7 cells [1] = assay: Fatty acid oxidation, 14CO2 released from [14C]palmitate; type: cell-based, human
Description: Fatty acid oxidation was measured by trapping and counting the ^14CO2 released from the oxidation of [^14C]palmitate in base. 1×10^6 MCF-7 cells were plated in T-25 flasks in triplicate and incubated overnight at 37° C. […] After 2 hours, medium with drugs was removed and cells were preincubated for 30 minutes with 1.5 ml of the following buffer: 114 mM NaCl, 4.7 mM KCI, 1.2 mM KH2PO4, 1.2 mM MgSO4, glucose 11 mM. After preincubation, 200 μl of assay buffer was added containing: 114 mM NaCl, 4.7 mM KCl, 1.2 mM KH2PO4, 1.2 mM MgSO4, glucose 11 mM, 2.5 mM palmitate (containing with 100 μCi of [1-^14C]palmitate) bound to albumin, 0.4 mM L-camitine, and cells were incubated at 37° C. for 2 hours. Following the incubation, 400 μl of benzothonium hydrochloride was added to the center well to collect released ^14CO2. […] The flasks with wells were then incubated for 2 hours at 37° C. after which the benzothonium hydrochloride was removed and counted for ^14C.

[2] = in vivo; cited from earlier work
CPT-1 = assay: Carnitine palmitoyltransferase-1 (CPT-1) assay in permeabilized MCF-7 cells; type: cell-based, human
Description: MCF-7 cells were plated in RPMI 1640 with 10% fetal bovine serum at 1×10^6 cells in six-well plates in triplicate. Following overnight incubation at 37° C., medium was removed and replaced with 700 μl of assay medium consisting of: 50 mM imidazole, 70 mM KCl, 80 mM sucrose, 1 mM EGTA, 2 mM MgCl2, 1 mM DTT, 1 mM KCN, 1 mM ATP, 0.1% fatty acid free bovine serum albumin, 70 μM palmitoyl-CoA, 0.25 μCi (methyl-^14C]L-camitine, 40 μg digitonin with or without 20 μM malonyl-CoA or other indicated inhibitors.
After incubation for 3 or 6 minutes at 37° C., the reaction was stopped by the addition of 500 μl of ice-cold 4 M perchloric acid. Cells were then harvested and centrifuged at 10,000× g for 5 min. The pellet was washed with 500 μl ice cold perchloric acid and centrifuged again. The resulting pellet was resuspended in 800 μl dH2O and extracted with 150 μl of butanol. The butanol phase was counted by liquid scintillation and represents the acylcarnitine derivative.

MCF-7 cells [3] = assay: Clonogenic assay (Example 11); type: cell-based, human; conditions: 6 h exposure; TOFA at 5 μg/ml
Description: After overnight incubation at 37° C., 1×10^6 MCF-7 cells were exposed to drugs as indicated for 6 h, washed, detached by trypsin digestion, counted and plated at 1000 or 500 cells/60-mm plate in triplicate. Colonies were stained with crystal violet and counted 4-6 days after plating. Controls consisted of cells incubated with DMSO without drugs. Error bars represent standard error of the mean.

MCF-7 cells [4] = assay: Cell growth inhibition assay, crystal violet; type: cell-based, human; conditions: for growth inhibition: 48 hours after treatment, Example 12
MCF-7 xenografts [5] = assay: Growth of subcutaneous MCF-7 xenografts in athymic nude mice; type: in vivo, mouse; conditions: 30 mg/kg intraperitoneal weekly, after 32 days
Description: Subcutaneous flank xenografts of the human breast cancer cell line, MCF-7 in nu/nu female mice (Harlan) were used to study the anti-tumor effects of C75 in vivo. All animal experiments complied with institutional animal care guidelines. All mice received a 90-day slow-release subcutaneous estrogen pellet (Innovative Research) in the anterior flank 7 days before tumor inoculation. […] MCF-7 cells were xenografted from culture in DMEM supplemented with 10% FBS and insulin 10 μg/ml.
(§1) Treatment began when measurable tumors developed about 10 days after inoculation. Eleven mice (divided among two separate experiments of 5 and 6 mice each) were treated intraperitoneally with wcekly doses of C75 at 30 mg/kg in 0.1 ml RPMI. […] Eleven control mice (divided in the same way as the treatment groups) received RPMI alone. Tumor volume was measured with calipers in three dimensions. Experiment was terminated when controls reached the surrogate endpoint.

[6] = Single dose LD10 determination; type: in vivo; conditions: BALB/c mice
[7] = test system: fatty acid synthesis in MCF-7 xenografts and liver; assay: Ex vivo [U-14C]-acetate labeling of tumor and liver of xenografted mice; type: in vivo, mouse; conditions: 30 mg/kg intraperitoneal, within 3 hours
Description: In a parallel experiment to determine fatty acid synthesis activity in treated and control tumors, a group of MCF-7 xenografted mice were treated with C75 or vehicle at above doses and sacrificed after 3 hours. Tumor and liver tissue were ex vivo labeled with [U^14-C] acetate, lipids were extracted and counted as described (Pizer, et al, 1996).

[8] = test system: SKBR3 and MCF7 human breast cancer cell lines; assay: Fatty acid synthesis activity, [U-14C]-acetate pulse labeling of lipids; type: cell-based; conditions: for [U14C-acetate] incorporation into lipids: SKBR3 and MCF7, labeled for 2 hours after exposure to inhibitor; for dose range of maximal inhibition of FA synthesis: all cell lines tested
Description: The human breast cancer cell lines, SKBR3 and MCF7 were maintained in RPMI with 10% fetal bovine serum. Cells were screened periodically for Mycoplasma contamination (Gen-probe). All inhibitors were added as stock 5 mg/ml solutions in DMSO. For fatty acid synthesis activity determinations, 5×10^4 cells/well in 24 well plates were pulse labeled with [U-^14C]-acetate after exposure to drug, and lipids were extracted and quantified as described previously (Pizer, et al., 1988). For MCF7 cells, pathway activity was determined after 2 hours of inhibitor exposure.

MCF-7 xenografts [9] = assay: Histology of treated xenograft tumors; type: in vivo, mouse; conditions: 6 hours after 30 mg/kg
Description: (§2) In an additional parallel experiment to histologically examine treated and control tumors, 6 C75 treated and 6 vehicle control mice were sacrificed 6 hours after treatment. Tumor and normal tissues were fixed in neutral-buffered formalin, processed for routine histology, and immunohistochemistry for FAS was performed. Immunohistochemistry for FAS was performed on the MCF-7 xenografts using a mouse monoclonal anti-FAS antibody (Alo, et al., 1996) at 1:2000 on the Dako Immunostainer using the LSAB2 detection kit.

MCF-7 cells [10] = assay: Malonyl-CoA levels by reversed phase HPLC; type: cell-based, human; conditions: for malonyl-CoA levels increased over controls: 1 hour exposure at 10 μg/ml
Description: Malonyl-CoA levels were measured in MCF-7 cells using the HPLC method of Corkey, et al. (1988, “Analysis of acyl-coenzyme A esters in biological samples,” Methods in Enzymology, 166:55-70). Briefly, 2.5×10^5 cells/well in 24 well plates were subjected to 1.2 ml of 10% TCA at 4° C. after various drug treatments. The pellet mass was recorded and the supernatant was washed 6 times with 1.2 ml of ether and reduced to dryness using vacuum centrifugation at 25° C. Coenzyme-A esters were separated and quantitated using reversed phase HPLC on a 5μ Supelco C18 column with a Waters HPLC system running Millenium^32 software monitoring 254 nm as the maximum absorbance for coenzyme-A. The following gradients and buffers were utilized: Buffer A: 0.1 M potassium phosphate, pH 5.0, Buffer B: 0.1 M potassium phosphate, pH 5.0, with 40% acetonitrile. Following a 20 min. isocratic run with 92% A, 8% B at 0.4 ml/min, flow was increased to 0.8 ml/min over one minute whereupon a linear gradient to 10% B was run until 24 min. then held at 10% B until 50 min. where a linear gradient was run to 100% B at 55 min., completing at 60 min. The following coenzyme-A esters (Sigma) were run as standards: malonyl-CoA, acetyl-CoA, glutathione-CoA, succinyl-CoA, HMG-CoA, and free CoA. Samples and standards were dissolved in 50 μl of buffer A. Coenzyme-A esters eluted sequentially as follows: malonyl-CoA, glutathione-CoA, free CoA, succinyl-CoA, HMG-CoA, and acetyl-CoA. Quantitation of coenzyme-A esters was performed by the Millenium^32 software.

[11] = test system: SKBR3 and MCF7 human breast cancer cells; assay: Clonogenic assay (Example 2); type: cell-based; conditions: for cytotoxicity in clonogenic assays: inhibitors 6 hours, dose range for ACC or FAS inhibition
Description: Cells and inhibitors were as described for Example 1. For clonogenic assays, 4×10^5 cells were plated in […] flasks with inhibitors added for 6 hours in concentrations listed. Equal numbers of treated cells and controls were plated in 60 mm dishes. Clones were stained and counted after 7 to 10 days.

[12] = Toxicity to host in nude mice (tolerability, histology of liver and other host tissues, weight); type: in vivo, mouse
Description: as §1, §2

SKBR3 and MCF7 cells = assay: Apoptosis by multiparameter flow cytometry, merocyanine 540 staining; type: cell-based, human
Description: Apoptosis was measured by multiparameter flow cytometry using a FACStar^Plus flow cytometer equipped with argon and krypton lasers (Becton Dickinson). Apoptosis was quantified using merocyanine 540 staining (Sigma), which detects altered plasma membrane phospholipid packing that occurs early in apoptosis, added directly to cells from culture (Pizer, et al., 1998; Mower, et al., 1994, “Decreased membrane pospholipid packing and decreased cell size precede DNA cleavage in mature mouse B cell apoptosis, J. Immunol., 152:4832-4842). In some experiments, chromatin conformational changes of apoptosis were simultaneously measured as decreased staining with LDS-751 (Exciton) (Frey, et al., 1995, “Nucleic acid dyes for detection of apoptosis in live cells,” Cytometry, 21:265-274). […] Cells were stained with LDS-751 at a final concentration of 100 nM from a 1 mM stock in DMSO. The merocyanine 540-positive cells were marked by an increase in red fluorescence, collected at 575+/−20 nm, 0.5 to 2 logs over merocyanine 540-negative cells. […] Data were collected and analyzed using CellQuest software (Becton Dickinson). In these experiments, all LDS-751 dim cells were merocyanine 540 bright, however a population of merocyanine 540 bright cells were detected that were not yet LDS-751 dim. All merocyanine 540 bright cells were classified as apoptotic.

## CC(C)(COP(=O)(O)OP(=O)(O)OC[C@H]1O[C@@H](n2cnc3c(N)ncnc32)[C@H](O)[C@@H]1OP(=O)(O)O)[C@@H](O)C(=O)NCCC(=O)NCCSC(=O)CC(=O)O [malonyl-CoA]
M-CPT-1
  sensitivity of M-CPT-1 versus L-CPT-1 to malonyl-CoA inhibition: 100 fold

## O=C([O-])C1(CCCCCCOc2ccc(Cl)cc2)CO1.[Na+] (stereo not shown) [Etomoxir]
MCF-7 cells [1]; 50 μg/ml
  fatty acid oxidation decreased over control: > 50%
[2]
  toxicity in humans treated for diabetes: without significant toxicity or weight loss
CPT-1; 10 μg/ml
  reduction in CPT-1 activity: 75%
MCF-7 cells [3]
  cytotoxicity in clonogenic assay: not significantly cytotoxic
MCF-7 cells [4]; 200 μg/ml, the only effective dose
  reduction in growth: significant reduction in growth
MCF-7 cells [4]
  growth inhibition: significant growth inhibition over control
MCF-7 cells [4]; doses known to inhibit CPT-1 and fatty acid oxidation, 48 or 72 h, Example 10
  growth inhibition or cytotoxicity: no significant growth inhibition or cytotoxicity
MCF-7 cells [4]; over 72 h, Example 7
  growth inhibition of MCF-7 cells: dose dependent growth inhibition of MCF-7 cells over 72 h greater than that of C75 at 5 μg/ml

## C=C1C(=O)OC(CCCCCCCC)C1C(=O)O (stereo not shown) [C75]
MCF-7 xenografts [5]
  difference in tumor growth compared to vehicle controls: greater than eight-fold
[6]
  LD10: 40 mg/kg
[7]
  reduction of fatty acid synthesis in MCF-7 xenografts: 70%
  reduction of fatty acid synthesis in ex vivo labeled liver: 76%
[8]
  [U14C-acetate] incorporation into lipids: inhibited
  dose range of maximal inhibition of FA synthesis: ~10 µg/mL
MCF-7 xenografts [9]
  tumor histology: numerous apoptotic bodies throughout the tumor tissue
MCF-7 cells [4]
  growth inhibition: significant growth inhibition over control
MCF-7 cells [10]
  malonyl-CoA levels increased over controls: 370%
[11]
  cytotoxicity in clonogenic assays: significantly cytotoxic
[12]; 30 mg/kg, outbred nude mice
  tolerability: well tolerated
[12]; following C75 treatment
  histological analysis of liver and other host tissues: no evidence of any short or long term toxicity
[12]; weekly intraperitoneal treatment
  toxicity noted: transient reversible weight loss was the only toxicity noted

## CCCCCCCCCCCCCCOc1ccc(C(=O)O)o1 [TOFA, 5-(tetradecyloxy)-2-furoic acid]
MCF-7 cells [1]; data not shown
  changes in fatty acid oxidation: nor does TOFA cause significant changes in fatty acid oxidation
CPT-1
  direct inhibition of CPT-1: does not cause CPT-1 inhibition
MCF-7 cells [3]
  cytotoxicity in clonogenic assay: not significantly cytotoxic
[8]
  [U14C-acetate] incorporation into lipids: inhibited
  dose range of maximal inhibition of FA synthesis: 1 to 5 µg/mL
SKBR3 and MCF7 cells
  increase in apoptosis: < 5%
SKBR3 and MCF7 cells; SKBR3 and MCF7 cells
  TOFA rescue from cerulenin induced apoptosis: rescued cells from cerulenin induced apoptosis
MCF-7 cells [10]; 20 μg/ml
  reduction of malonyl-CoA levels: 60%
[11]
  reduction in clonogenicity: no reduction
  cytotoxicity in clonogenic assays: non-toxic or stimulatory
[11]; MCF7 cells
  TOFA rescue of C75 cytotoxicity in clonogenic assay: modest rescue
  TOFA rescue of cerulenin cytotoxicity in clonogenic assay: modest rescue

## C/C=C/C/C=C/CCC(=O)[C@H]1O[C@H]1C(N)=O [cerulenin]
MCF-7 cells [1]; 10 μg/ml, 2 hours
  reduction in fatty acid oxidation compared to control: ~50%
[8]; MCF-7, 10 μg/ml, within 2 hours
  reduction in fatty acid synthesis: > 50%
[8]
  [U14C-acetate] incorporation into lipids: inhibited
  dose range of maximal inhibition of FA synthesis: ~10 µg/mL
SKBR3 and MCF7 cells
  apoptosis: > 85%
MCF-7 cells [10]; 10 μg/ml
  increase in malonyl-CoA: nine-fold
MCF-7 cells [10]
  malonyl-CoA levels increased over controls: 930%
[11]
  reduction in clonogenicity: 70%
  cytotoxicity in clonogenic assays: significantly cytotoxic
